# Reference: ChEMBL document CHEMBL1155624, “Steroidal glycosides from the aerial parts of Polianthes tuberosa” (J Nat Prod, 2000)
# System: HL-60
# Assay: Cytotoxicity against human HL60 cells by MTT reduction assay
# Assay type: functional, cell-based
row,SMILES,IC50 [µg/mL]
1,CC1CC[C@@]2(OC1)O[C@H]1C[C@H]3[C@@H]4CC[C@H]5C[C@@H](O[C@@H]6O[C@H](CO)[C@H](O[C@@H]7O[C@H](CO)[C@@H](O)[C@H](O[C@@H]8OC[C@@H](O)[C@H](O)[C@H]8O)[C@H]7O[C@@H]7O[C@H](CO)[C@@H](O)[C@H](O[C@@H]8OC[C@@H](O)[C@H](O)[C@H]8O)[C@H]7O)[C@H](O)[C@H]6O)CC[C@]5(C)C4=CC(=O)[C@]3(C)[C@H]1[C@@H]2C (some centres undefined),6.1
2,CC(C)CC[C@H](O)[C@@H](C)[C@H]1[C@@H](O[C@@H]2OC[C@](O)(CO)[C@H]2O)C[C@H]2[C@@H]3CC=C4C[C@@H](O)C[C@@H](O[C@@H]5O[C@H](CO)[C@@H](O)[C@H](O)[C@H]5O)[C@]4(C)[C@H]3CC[C@]12C,> 10
3,CC1CC[C@@]2(OC1)O[C@H]1C[C@H]3[C@@H]4CC[C@H]5C[C@@H](O[C@@H]6O[C@H](CO)[C@H](O[C@@H]7O[C@H](CO)[C@@H](O)[C@H](O[C@@H]8OC[C@@H](O)[C@H](O)[C@H]8O)[C@H]7O[C@@H]7O[C@H](CO)[C@@H](O)[C@H](O[C@@H]8OC[C@@H](O)[C@H](O)[C@H]8O)[C@H]7O)[C@H](O)[C@H]6O)CC[C@]5(C)[C@H]4CC(=O)[C@]3(C)[C@H]1[C@@H]2C (some centres undefined),3.2
4,CC1CC[C@@]2(OC1)O[C@H]1C[C@H]3[C@@H]4C[C@H](O)[C@H]5C[C@@H](O[C@@H]6O[C@H](CO)[C@H](O[C@@H]7O[C@H](CO)[C@@H](O)[C@H](O[C@@H]8OC[C@@H](O)[C@H](O)[C@H]8O)[C@H]7O[C@@H]7O[C@H](CO)[C@@H](O)[C@H](O[C@@H]8OC[C@@H](O)[C@H](O)[C@H]8O)[C@H]7O)[C@H](O)[C@H]6O)CC[C@]5(C)[C@H]4CC[C@]3(C)[C@H]1[C@@H]2C (some centres undefined),2.6
